Results from patent publication US20070112044A1, “Thiadiazoline derivative” (Kyowa Hakko Kogyo Co., Ltd., priority 2003, published 2007).
Where two headings read alike, the source gives them in different places.

Legend:
[1] = tested on: HCT 116 human colon carcinoma cells; experiment: Antiproliferative activity against HCT 116 human colon carcinoma cells (XTT); assay type: cell-based
Description: HCT 116 cells (ATCC No.: CCL-247) were placed on a 96-well microtiter plate (Nunc, 167008) at a density of 1×10^3 cells/well. The plate was incubated in a 5% CO2 incubator at 37° C. for 24 hours, and then to the plate was added test compounds diluted stepwise to 100 μL/well in total, and the plate was further incubated in a 5% CO2 incubator at 37° C. for 72 hours. To the culture medium, the XTT (sodium 3′-[1-(phenylaminocarbonyl)-3,4-tetrazolium]-bis(4-methoxy-6-nitro)benzenesulfonic acid hydrate) labeling mixture (Roche Diagnostics, 1465015) was dispensed in 50 μL/well portions, then the plate was incubated in a 5% CO2 incubator at 37° C. for 1 hour, and the absorbance was measured at 490 nm and 655 nm with a microplate spectrophotometer (Bio-Rad, Model 550). The inhibitory activity against cell proliferation was shown as GI50, a concentration of compound at which induces 50% inhibition of cell proliferation.
GI50 calculation method: The value (difference in absorbance) was calculated by subtracting the absorbance at 655 nm from the absorbance at 490 nm of each well. The difference in absorbance obtained from the cells untreated with a test compound was defined as 100%, and compared with the difference in absorbance obtained from the cells treated with the solution of the compound in the known concentration, and thereby the concentration of the compound of 50% inhibition against cell proliferation was calculated to obtain GI50.

[2] = molecular target: T1, recombinant human Eg5 motor domain protein (Homo sapiens, UniProt P52732); experiment: Eg5 enzyme inhibition test (2), ATPase activity; assay type: biochemical; settings: 30° C. for 30 minutes, concentration-dependent inhibition
T1 construct: A plasmid expressing the motor domain of human Eg5 was constructed; made in house; host or cells: Escherichia coli BL21 (DE3)
T1 sequence (P52732 18-359 limits assumed): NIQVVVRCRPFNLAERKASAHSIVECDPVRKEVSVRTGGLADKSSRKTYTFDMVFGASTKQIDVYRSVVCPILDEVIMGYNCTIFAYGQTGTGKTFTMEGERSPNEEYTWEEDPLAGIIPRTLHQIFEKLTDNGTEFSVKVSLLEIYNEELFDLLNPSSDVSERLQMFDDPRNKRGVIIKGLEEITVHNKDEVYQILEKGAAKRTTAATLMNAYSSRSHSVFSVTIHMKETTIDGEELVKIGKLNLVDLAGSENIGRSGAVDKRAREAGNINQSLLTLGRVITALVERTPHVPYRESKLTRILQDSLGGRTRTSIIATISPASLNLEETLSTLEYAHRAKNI
Description: A recombinant human Eg5 motor domain protein was prepared by referring to the literature [Biochemistry, Vol. 35, p. 2365 (1996)]. A plasmid expressing the motor domain of human Eg5 was constructed, and transformed into Escherichia coli BL21 (DE3). The transformant was cultured at 25° C, and when the OD600 reached 0.74, isopropyl-β-D-thiogalactoside was added at a final concentration of 0.5 mmol/L. The transformant was further cultured for 4 hours, and then the culture medium was centrifuged to collect the cells. The cells were suspended in a buffer and ultrasonicated, and then the sonicated solution was centrifuged to recover the supernatant. The supernatant was purified by cation exchange column chromatography to obtain a partially purified sample. Furthermore, the partially purified sample was purified by gel filtration column chromatography to obtain a finally purified sample.
Measurement of the ATPase activity of Eg5 was carried out by referring to the literatures [EMBO Journal, Vol. 13, p. 751 (1994); Proc. Natl. Acad. Sci. USA, Vol. 89, p. 4884 (1992)]. The following two kinds of solutions were prepared: Solution A consisting of 25 mmol/L piperazine N,N′-bis(ethanesulfonate) (PIPES)/KOH (pH 6.8), 1 mmol/L ethylene glycol-bis(2-aminoethyl ether)tetraacetic acid (EGTA), 2 mmol/L MgCl2, 1 mmol/L dithiothreitol (DTT), 5 μmol/L paclitaxel, 167 μg/mL bovine serum albumin (BSA), 41.7 μg/mL tubulin (Cytoskeleton, Catalog No. TL238), 333 μmol/L MESG substrate (2-amino-6-mercapto-7-methylpurine riboside) (Molecular Probes, Catalog Number E-6646), 1.67 U/mL purine nucleoside phosphorylase (Molecular Probe, Catalog No. E-6646) and 1.33 μg/mL of the human Eg5 motor domain purified sample, and Solution B consisting of 25 mmol/L piperazine N,N′-bis(ethanesulfonate) (PIPES)/KOH (pH 6.8), 1 mmol/L ethylene glycol-bis(2-aminoethyl ether)tetraacetic acid (EGTA), 2 mmol/L MgCl2, 1 mmol/L dithiothreitol (DTT), 5 μmol/L paclitaxel and 2.5 mmol/L ATP. Solution A was dispensed into each well of a 96-well plate as 45 μL portions. Solution B was used to serially dilute a test compound. The diluted test compound solutions in a volume of 30 μL were mixed with Solution A added beforehand in each well of the 96-well plate to start the enzymatic reaction. The enzymatic reaction was performed at 30° C. for 30 minutes. Absorbance at 360 nm, which serves as an index of the ATPase activity, was measured using a plate reader (Molecular Device, SpectraMax 340PC^384). The absorbance observed in the presence of Eg5 and absence of the test compound was defined 100%, and the absorbance observed in the absence of both Eg5 and the test compound was defined 0%. The relative activity was calculated to calculate IC50 value.

[3] = HCT 116 cells, 72 hours incubation, XTT, 50% inhibition of cell proliferation, read-out: GI50

| GI50 [1, 3] [nM] | IC50 [2] [nM] | SMILES | GI50 ([1]; HCT-116, 72 h) [nM] |
| --- | --- | --- | --- |
| < 100 | ≤ 10000 | CC(=O)N1N=C(c2ccccc2F)SC1(CCNC(=O)CCCN(C)C)c1ccccc1 (stereo not drawn) [Compound 61] |  |
| 160 | ≤ 10000 | CC(=O)N1N=C(c2ccccc2F)SC1(CCCN1CCN(C)CC1)c1ccccc1 (stereo not drawn) [Compound 62] |  |
| < 100 | ≤ 10000 | CC(=O)N1N=C(c2ccccc2F)SC1(CNC(=O)CN)c1ccccc1 (stereo not drawn) [Compound 55] |  |
| 410 | ≤ 10000 | CC(=O)N1N=C(C(=O)NC(C)(C)C)SC1(C)c1ccccc1 (stereo not drawn) [Compound 44] |  |
| 180 | ≤ 10000 | CC(=O)N1N=C(c2ccccc2)SC1(CNS(C)(=O)=O)c1ccccc1 (stereo not drawn) [Compound 10] |  |
| 170 | ≤ 10000 | CC(=O)N1N=C(c2cccn2C(=O)OC(C)(C)C)SC1(C)c1ccccc1 (stereo not drawn) [Compound 5] |  |
| 220 | ≤ 10000 | CC(=O)N1N=C(c2cccc(F)c2)SC1(C)c1ccccc1 (stereo not drawn) [Compound 24] |  |
| 190 | ≤ 10000 | CC(=O)N1N=C(C(=O)NC(C)(C)C)SC1(CNS(=O)(=O)CCN(C)C)c1ccccc1 (stereo not drawn) [Compound 68] |  |
| < 100 | ≤ 10000 | CC(=O)N1N=C(c2ccccc2F)SC1(CNS(=O)(=O)CCN)c1ccccc1 (stereo not drawn) [Compound 49] |  |
| 83 | ≤ 10000 | CC(=O)N1N=C(c2ccccc2F)SC1(C)c1ccccc1 (stereo not drawn) [Compound 22] |  |
| 200 | ≤ 10000 | CC(=O)N1N=C(C#CC(C)(C)C)SC1(CNS(C)(=O)=O)c1ccccc1 (stereo not drawn) [Compound 20] |  |

| SMILES | GI50 [1, 3] [nM] | IC50 [2] [nM] | GI50 ([1]; HCT-116, 72 h) [nM] |
| --- | --- | --- | --- |
| CC(=O)N1N=C(c2ccco2)SC1(C)c1ccccc1 (stereo not drawn) [Compound 1] |  | ≤ 10000 | 530 |
